Measurements published in patent US20260345603A1, “PRMT5 INHIBITORS” (Beijing Earthwise Technology Co., Ltd., priority 2022, published 2026).

tested on: HCT116^MTAP Deletion cells; assay: Anti-proliferation assay on cells (CTG, 10 days), HCT116 MTAP Deletion; format: cell-based; conditions: Homo sapiens, HCT-116, 240 h, anti-proliferative activity, HCT116 MTAP Deletion, 10 days, class symbols; read-out: HCT116^MTAP Deletion GI50
Description: (§1) HCT116^MTAD Deletion cells were from Pharmaron (China); HCT116 cells were from ATCC; McCoy's 5A medium was purchased from Invitrogen (USA); penicillin-streptomycin and fetal bovine serum were purchased from Gibco (USA); a 384-well plate was purchased from PerkinElmer (USA); and Cell-Titer Glo reagent was purchased from Promega (USA).
(§2) Compound dissolution: All the compounds were dissolved in dimethyl sulfoxide (DMSO) and then stored. The compounds were stored at room temperature in a dry condition for 3 months for short term storage or at −20 °C for long term storage.
(§3) The cells were cultured strictly in accordance with ATCC requirements. The cell culture medium (McCoy's 5A medium+10% fetal bovine serum+1% penicillin+streptomycin) was transferred to a 15 mL centrifuge tube and centrifuged at 1000 rpm for 5 min. The supernatant was removed. The cells were resuspended with complete culture medium, inoculated into a culture dish at the required density, and cultured in an incubator at 37 °C, 95% humid air, and 5% carbon dioxide. The culture medium was replenished or the cells were passaged every 2-3 days depending on the cell growth condition.
(§4) When the confluency of cells in the culture dish reached about 90%, the cells were washed twice with PBS, and then treated with trypsin to become single cells. The cells were counted, and 40 μl of the cells was inoculated into each well of a 384-well plate (50 cells/well). The plate was equilibrated at 37 °C and 5% carbon dioxide for 10 to 15 minutes. The compounds were injected into the 384-well plate using Echo550, and positive control and negative control (0.1% DMSO) were set up. Each compound was subjected to a 3-fold dilution, resulting in 10 concentration gradients, in duplicate, and the content of DMSO was 0.1%. The 384-well plate was incubated in a cell culture incubator for 10 days.
(§5) Then, 40 μl of cell proliferation assay reagent (CTG) was added to the 384-well plate, and the plate was shaken to mix well. Then, the 384-well plate was incubated at 37 °C and 5% carbon dioxide in the dark for 30 minutes. The data were read using the Envision multifunctional microplate reader. […] According to the different drug concentrations and their corresponding inhibition rates, the GI50 curve was drawn using GraphPad 8.0 software. The data were analyzed, and the final GI50 value was obtained.

GI50	SMILES
100 to 1000 nM	C[C@H](C1CC1)N(Cc1ccc(C(F)(F)F)cn1)C(=O)C(=O)Nc1cnc(N)c2c1COC2 [Example 39]
100 to 1000 nM	Nc1ncc(NC(=O)C(=O)N(Cc2ccc(C(F)(F)F)cn2)CC2CC2)c2c1COC2 [Example 40]
10 to 100 nM	CCC(C)N(Cc1ccc(C(F)(F)F)cn1)C(=O)C(=O)Nc1cnc(N)c2c1cnn2C (centres unmarked) [Example 46-P2]
> 10000 nM	CCC(C)N(Cc1cnn(C)c1)C(=O)C(=O)Nc1cnc(N)c(C)c1 (centres unmarked) [Example 73]
≤ 10 nM	CN(C(=O)C(=O)Nc1cnc(N)c2c1cnn2C)C1COCc2cc(Br)ccc21 (centres unmarked) [Example 94]
≤ 10 nM	CN(C(=O)C(=O)Nc1cnc(N)c2c1cnn2C)C1COCc2cc(C3=CCOCC3)ccc21 (centres unmarked) [Example 100]
10 to 100 nM	CN(C(=O)C(=O)Nc1cnc(N)c2c1cnn2C)C1COCc2cc(C(F)(F)F)ccc21 (centres unmarked) [Example 106-P1]
≤ 10 nM	CN(C(=O)C(=O)Nc1cnc(N)c2c1cnn2C)C1COCc2cc(C3=CCC(F)(F)CC3)ccc21 (centres unmarked) [Example 157]
10 to 100 nM	CN1CC=C(c2ccc3c(c2)COCC3N(C)C(=O)C(=O)Nc2cnc(N)c3c2cnn3C)CC1 (centres unmarked) [Example 160]
10 to 100 nM	[2H]C([2H])([2H])n1ncc2c(NC(=O)C(=O)N(C)C3COc4cc(C(F)(F)F)ccc43)cnc(N)c21 (centres unmarked) [Example 173]
≤ 10 nM	CN(C(=O)C(=O)Nc1cnc(N)c2c1cnn2C)C1COc2cc(-c3cnn(C4CC4)c3)ccc21 (centres unmarked) [Example 211]
≤ 10 nM	CN(C(=O)C(=O)Nc1cnc(N)c2c1cnn2C)C1COc2cc(-c3ccnn3C3CC3)ccc21 (centres unmarked) [Example 212]
≤ 10 nM	CN(C(=O)C(=O)Nc1cnc(N)c2c1cnn2C)C1COc2cc(-c3cnn(C(F)(F)F)c3)ccc21 (centres unmarked) [Example 213]
≤ 10 nM	CN(C(=O)C(=O)Nc1cnc(N)c2c1cnn2C)C1COc2cc(-c3cnc(C4CC4)s3)ccc21 (centres unmarked) [Example 236]

Further lines, the molecule ahead of its results:

SMILES	GI50
Nc1ncc(NC(=O)C(=O)N(Cc2ccc(C(F)(F)F)cn2)CC2CCC2)c2c1COC2 [Example 41]	100 to 1000 nM
Cc1cc(NC(=O)C(=O)N(Cc2ccc(C3=CCOCC3)nn2)[C@H](C)c2ncccn2)cnc1N [Example 42]	100 to 1000 nM
Cn1ncc2c(NC(=O)C(=O)N(Cc3ccc(C(F)(F)F)cn3)CC3CC3)cnc(N)c21 [Example 43]	≤ 10 nM
CC(c1cscn1)N(Cc1ccc(C(F)(F)F)cn1)C(=O)C(=O)Nc1cnc(N)c2c1cnn2C (centres unmarked) [Example 44]	10 to 100 nM
CCC(C)N(Cc1ccc(OCC(F)(F)F)nn1)C(=O)C(=O)Nc1cnc(N)c(C)c1 (centres unmarked) [Example 63]	100 to 1000 nM
CN(C(=O)C(=O)Nc1cnc(N)c2c1cnn2C)C1COCc2cc(-c3cnn(C)c3)ccc21 (centres unmarked) [Example 99]	≤ 10 nM
[2H]C([2H])([2H])N(C(=O)C(=O)Nc1cnc(N)c2c1cnn2C)C1COCc2cc(C(F)(F)F)ccc21 (centres unmarked) [Example 109]	≤ 10 nM
CN(C(=O)C(=O)Nc1cnc(N)c2c1cnn2C)C1COCc2cc(-c3ccnn3C)ccc21 (centres unmarked) [Example 137]	≤ 10 nM
CN(C(=O)C(=O)Nc1cnc(N)c2c1cnn2C)C1COc2nc(C(F)(F)F)ccc21 (centres unmarked) [Example 159]	100 to 1000 nM
CN(C(=O)C(=O)Nc1cnc(N)c2c1cnn2C)C1COc2cc(-c3ccnn3C)ccc21 (centres unmarked) [Example 161]	≤ 10 nM
CN(C(=O)C(=O)Nc1cnc(N)c2c1cnn2C)C1COCc2cc(Cl)c(Cl)cc21 (centres unmarked) [Example 163]	≤ 10 nM
Cc1ccc2c(c1)OCC2N(C)C(=O)C(=O)Nc1cnc(N)c2c1cnn2C (centres unmarked) [Example 233]	10 to 100 nM

same assay, conditions: anti-proliferative activity, HCT116 MTAP Deletion, 10 days, class symbols; read-out: HCT116^MTAP Deletion GI50

GI50	SMILES
≤ 10 nM	CCC(C)N(Cc1ccc(C(F)(F)F)cn1)C(=O)C(=O)Nc1cnc(N)c2c1cnn2C (centres unmarked) [Example 52]
≤ 10 nM	CN(C(=O)C(=O)Nc1cnc(N)c2c1cnn2C)C1COCc2cc(-c3cnn(C)c3)ccc21 (centres unmarked) [Example 124-P1]

tested on: HCT116 cells (HCT116^MTAP WT); assay: Anti-proliferation assay on cells (CTG, 10 days), HCT116 (MTAP WT); format: cell-based; conditions: ratio HCT116 MTAP WT GI50 / HCT116 MTAP Deletion GI50
Description: as §1, §2, §3, §4, §5

Selectivity multiple of HCT116^MTAP WT GI50/HCT116^MTAP Deletion GI50	SMILES
94	CN(C(=O)C(=O)Nc1cnc(N)c2c1cnn2C)C1COCc2cc(Cl)c(Cl)cc21 (single isomer, unassigned) [Example 163-P1]
